# Assay results: patent publication US10087427B2, “Glycosyltransferase gene and use thereof” (SUNTORY HOLDINGS LIMITED, priority 2014, dated 2018)
# Tested on: NmGT22 protein
# Experiment: Enzyme activity of purified His-tag NmGT22 protein on flavonoid substrates (HPLC)
# Assay type: biochemical, Nemophila menziesii
# Conditions: NmGT22 protein solution, UDP-glucose, 2 mM substrate, same reaction conditions
# Procedure: E. coli strain BL2 introduced with pET SUMO-NmGT22 described in Example 5 was cultured using the Overnight Express Auto-induction System 1 (Novagen Inc.) in accordance with the manufacturer's recommended protocol. The transformed E. coli were cultured in 8 ml of prepared culture broth at 37° C. until the OD600 value reached 0.5 (about 4 hours). This E. coli culture broth was added to 200 ml of a culture broth as pre-culture broth followed by final culturing overnight at 25° C.
# After having been cultured overnight, the E. coli culture broth was centrifuged (1,000×g, 4° C., 10 minutes), the harvested bacterial cells were suspended in 20 ml of extract (composition: buffer solution (300 mM KCl, 50 mM KH2PO4, 5 mM imidazole) (pH 8.0), 10 μM amidinophenylmethanesulfonyl fluoride hydrochloride (APMSF)), and the E. coli were crushed by ultrasonic treatment followed by centrifuging (1,400×g, 4° C., 20 minutes) and recovering the supernatant. The supernatant was passed through a 0.45 μm filter and subjected to His-Tag purification using Profinia (Bio-Rad Corp.) in accordance with the manufacturer's recommended protocol. The resulting purified protein solution was centrifuged (7,500×g, 4° C., 15 minutes) using a centrifugal filter unit (Ultracel-10K, Amicon Ultra), and the concentrated protein solution was used as “NmGT-22 Protein Solution”. The Avanti HP-26XP centrifuge (rotor: JA-2, Beckman Coulter Inc.) was used for centrifugation.
# A reaction solution prepared by mixing 10 μl of protein solution, 2 it of 50 mM UDP-glucose, 10 μl of 1 M Tris-HCl (pH 7.5) and 1 μl of 2 mM apigenin 4′-glucoside (dissolved in 50% aqueous acetonitrile solution containing 0.1% TFA) on ice and bringing to reaction volume of 100 μl with water was held for 20 minutes at 30° C. Subsequently, 100 μl of stop buffer (90% aqueous acetonitrile solution containing 0.1% TFA) were added to stop the reaction followed by analyzing the reaction solution by high-performance liquid chromatography (Prominence, Shimadzu Corp.). Flavone was detected at 330 nm using the Shimadzu PDA SPD-M10AVP for the detector. The Shim-Pack ODS column (150 mm×4.6 mm, Shimadzu Corp.) was used for the column. A liquid A (0.1% aqueous TFA solution) and a liquid B (90% aqueous methanol solution containing 0.1% TFA) were used for elution. Elution was carried out for 10 minutes at a linear concentration gradient from an 8:2 mixture of the two solutions to a 3:7 mixture of the two solutions followed by eluting for 6 minutes using a 3:7 mixture of the two solutions. The flow rate was 0.6 ml/min.
row,SMILES,product synthesized by enzyme reaction
1,O=c1cc(-c2ccc(O[C@@H]3O[C@H](CO)[C@@H](O)[C@H](O)[C@H]3O)c(O)c2)oc2cc(O)cc(O)c12 [luteolin 4′-glucoside],"Luteolin 4′,7-diglucoside was synthesized"

# Same assay, conditions: NmGT22 protein solution, UDP-glucose, 1 μl of 2 mM substrate in 100 μl, 20 minutes at 30° C.
row,SMILES,reaction rate (percentage of transformed substrate)
1,O=c1cc(-c2ccc(O[C@@H]3O[C@H](CO)[C@@H](O)[C@H](O)[C@H]3O)cc2)oc2cc(O)cc(O)c12 [apigenin 4′-glucoside],100%
2,O=c1cc(-c2ccc(O)cc2)oc2cc(O[C@@H]3O[C@H](CO)[C@@H](O)[C@H](O)[C@H]3O)cc(O)c12 [apigenin 7-glucoside],2.69%
3,"O=c1cc(-c2ccc(O)cc2)oc2cc(O)cc(O)c12 [apigenin, 4′,5,7-trihydroxyflavone]",77.16%
4,O=c1cc(-c2ccc(O)c(O)c2)oc2cc(O[C@@H]3O[C@H](CO)[C@@H](O)[C@H](O)[C@H]3O)cc(O)c12 [luteolin 7-glucoside],16.10%
5,"O=c1cc(-c2ccc(O)c(O)c2)oc2cc(O)cc(O)c12 [luteolin, 3′,4′,5,7-tetrahydroxyflavone]",99.07%
